Results reported in patent publication US10588317B2, “Isoxazoline-substituted benzamides and analogues as insecticides” (priority 2015, dated 2020).

Tests used:
Type in all cases: in vivo
[1] = tested on: Spodoptera littoralis; test: Spodoptera littoralis (Egyptian cotton leaf worm), sprayed cotton leaf discs; settings: foliar, 72 h, application rate 200 ppm, L1 larvae, 3 days after infestation, read-out: control (mortality, anti-feeding effect, growth inhibition)
Summary of the method: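 Five first-instar larvae placed on dried cotton leaf discs (on agar) previously sprayed with aqueous dilutions of 10'000 ppm DMSO stocks. Scored at 3 days against untreated discs for mortality, feeding inhibition and growth inhibition; any category above untreated counts as control.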

[2] = tested on: Thrips tabaci; test: Thrips tabaci (onion thrips): feeding/contact activity; settings: 144 h, application rate 200 ppm, Thrips population of mixed ages, 6 days after infestation, read-out: mortality
Experimental: (§1) Sunflower leaf discs were placed on agar in 24-well microtiter plates and sprayed with aqueous test solutions prepared from 10'000 ppm DMSO stock solutions. After drying the leaf discs were infested with a Thrips population of mixed ages. The samples were assessed for mortality 6 days after infestation.

[3] = tested on: Spodoptera littoralis; test: Spodoptera littoralis (Egyptian cotton leaf worm), uptake by lettuce roots from agar; settings: 144 h, read-out: effect in at least one of the three categories (mortality, anti-feeding, or growth inhibition);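 further: 12.5 ppm test rate in agar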
Summary of the method: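 Systemic test: Spodoptera eggs placed on lettuce leaves from seedlings raised 7 days on agar containing the compound (diluted from 10'000 ppm DMSO stock). Six days after infestation, larvae scored against untreated controls for mortality, feeding deterrence and growth inhibition.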

[4] = tested on: Myzus persicae; test: Myzus persicae (green peach aphid): feeding/contact activity; settings: 144 h, application rate 200 ppm, aphid population of mixed ages, 6 days after infestation, read-out: mortality
Experimental: Sunflower leaf discs were placed onto agar in a 24-well microtiter plate and sprayed with aqueous test solutions prepared from 10'000 ppm DMSO stock solutions. After drying, the leaf discs were infested with an aphid population of mixed ages. The samples were assessed for mortality 6 days after infestation.

[5] = tested on: Euschistus heros; test: Euschistus heros (neotropical brown stink bug), sprayed soybean leaves; settings: 120 h, application rate 200 ppm, N2 nymphs, 5 days after infestation, read-out: effect in at least one of the two categories (mortality or growth inhibition)
Summary of the method: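 Scored 5 days post-infestation versus untreated controls, for both mortality and growth inhibition: N2 nymphs placed on agar-mounted soybean leaves previously sprayed at 200 ppm with aqueous test solutions from DMSO stocks and left to dry.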

[6] = tested on: Plutella xylostella; test: Plutella xylostella (diamond back moth), artificial diet; settings: 120 h, application rate 200 ppm, L2 larvae, 5 days after infestation, read-out: effect in at least one of the two categories (mortality or growth inhibition)
Summary of the method: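 L2 larvae (10-15 per well) fed on compound-treated, dried artificial diet; test solutions diluted in water from 10'000 ppm DMSO stocks. Readout 5 days post-infestation as mortality or growth inhibition versus untreated diet, with at least 80% effect at 200 ppm as threshold.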

[7] = tested on: Diabrotica balteata; test: Diabrotica balteata (corn root worm), sprayed maize sprouts; settings: 96 h, application rate 200 ppm, L2 larvae, 4 days after infestation, read-out: effect in at least one of the two categories (mortality or growth inhibition)
Summary of the method: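 Read-out at 4 days post-infestation: mortality and growth inhibition relative to untreated samples. Test solutions (200 ppm, from DMSO stocks) were sprayed onto agar-held maize sprouts, which after drying received 6–10 L2 larvae per well.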

[8] = tested on: Tetranychus urticae; test: Tetranychus urticae (two-spotted spider mite): feeding/contact activity; settings: 192 h, application rate 200 ppm, mixed population (mobile stages), 8 days after infestation, read-out: mortality
Experimental: as §1, with “Bean” for “Sunflower”, “discs” for “discs were placed”, “were” for “and”, “mite” for “Thrips”, “on mixed population (mobile stages) 8” for “6”

CCS(=O)(=O)N1CC(NC(=O)c2ccc(C3=NO[C@@](c4cc(Cl)c(F)c(Cl)c4)(C(F)(F)F)C3)cc2Br)CO1 (stereo partly drawn) [Compound A44, 2-bromo-4-[(5S)-5-(3,5-dichloro-4-fluoro-phenyl)-5-(trifluoromethyl)-4H-isoxazol-3-yl]-N-(2-ethylsulfonylisoxazolidin-4-yl)benzamide]
≥ 80%: mortality at 200 ppm [1] | mortality at 200 ppm [2] | percent control (mortality, anti-feedant effect or growth inhibition) at 12.5 ppm [3] | mortality at 200 ppm [4] | percent effect (mortality or growth inhibition) at 200 ppm [5] | percent effect (mortality or growth inhibition) at 200 ppm [6] | percent effect (mortality or growth inhibition) at 200 ppm [7] | mortality at 200 ppm [8]

Cc1cc(C2=NO[C@@](c3cc(Cl)c(F)c(Cl)c3)(C(F)(F)F)C2)ccc1C(=O)N[C@@H]1CON(S(C)(=O)=O)C1 (single isomer, unassigned) [Compound A12]
≥ 80%: mortality at 200 ppm [1] | mortality at 200 ppm [2] | percent control (mortality, anti-feedant effect or growth inhibition) at 12.5 ppm [3] | mortality at 200 ppm [4] | percent effect (mortality or growth inhibition) at 200 ppm [5] | percent effect (mortality or growth inhibition) at 200 ppm [6] | percent effect (mortality or growth inhibition) at 200 ppm [7] | mortality at 200 ppm [8]

CCNS(=O)(=O)N1C[C@@H](NC(=O)c2ccc(C3=NO[C@@](c4cc(Cl)c(Cl)c(Cl)c4)(C(F)(F)F)C3)cc2Cl)CO1 [Compound A125, 2-chloro-N-[(4R)-2-(ethylsulfamoyl)isoxazolidin-4-yl]-4-[(5S)-5-(3,4,5-trichlorophenyl)-5-(trifluoromethyl)-4H-isoxazol-3-yl]benzamide]
≥ 80%: mortality at 200 ppm [1] | mortality at 200 ppm [2] | percent control (mortality, anti-feedant effect or growth inhibition) at 12.5 ppm [3] | mortality at 200 ppm [4] | percent effect (mortality or growth inhibition) at 200 ppm [5] | percent effect (mortality or growth inhibition) at 200 ppm [6] | percent effect (mortality or growth inhibition) at 200 ppm [7] | mortality at 200 ppm [8]

CNS(=O)(=O)N1CC(NC(=O)c2ccc(C3=NO[C@@](c4cc(Cl)c(Cl)c(Cl)c4)(C(F)(F)F)C3)cc2C)CO1 (stereo partly drawn) [Compound A69, 2-methyl-N-[2-(methylsulfamoyl)isoxazolidin-4-yl]-4-[(5S)-5-(3,4,5-trichlorophenyl)-5-(trifluoromethyl)-4H-isoxazol-3-yl]benzamide]
≥ 80%: mortality at 200 ppm [1] | mortality at 200 ppm [2] | percent control (mortality, anti-feedant effect or growth inhibition) at 12.5 ppm [3] | mortality at 200 ppm [4] | percent effect (mortality or growth inhibition) at 200 ppm [5] | percent effect (mortality or growth inhibition) at 200 ppm [6] | percent effect (mortality or growth inhibition) at 200 ppm [7] | mortality at 200 ppm [8]

CCN(C)S(=O)(=O)N1C[C@@H](NC(=O)c2ccc(C3=NO[C@@](c4cc(Cl)c(F)c(Cl)c4)(C(F)(F)F)C3)cc2C)CO1 [Compound A140, 4-[(5S)-5-(3,5-dichloro-4-fluoro-phenyl)-5-(trifluoromethyl)-4H-isoxazol-3-yl]-N-[(4R)-2-[ethyl(methyl)sulfamoyl]isoxazolidin-4-yl]-2-methyl-benzamide]
≥ 80%: mortality at 200 ppm [1] | mortality at 200 ppm [2] | percent control (mortality, anti-feedant effect or growth inhibition) at 12.5 ppm [3] | mortality at 200 ppm [4] | percent effect (mortality or growth inhibition) at 200 ppm [5] | percent effect (mortality or growth inhibition) at 200 ppm [6] | percent effect (mortality or growth inhibition) at 200 ppm [7] | mortality at 200 ppm [8]

Cc1cc(C2=NOC(c3cc(C(F)(F)F)cc(C(F)(F)F)c3)(C(F)(F)F)C2)ccc1C(=O)NC1CON(S(C)(=O)=O)C1 (stereo not drawn) [Compound A59]
≥ 80%: mortality at 200 ppm [1] | mortality at 200 ppm [2] | percent control (mortality, anti-feedant effect or growth inhibition) at 12.5 ppm [3] | mortality at 200 ppm [4] | percent effect (mortality or growth inhibition) at 200 ppm [5] | percent effect (mortality or growth inhibition) at 200 ppm [6] | percent effect (mortality or growth inhibition) at 200 ppm [7] | mortality at 200 ppm [8]

CNS(=O)(=O)N1C[C@@H](NC(=O)c2ccc(C3=NO[C@@](c4cc(Cl)cc(C(F)(F)F)c4)(C(F)(F)F)C3)cc2Cl)CO1 [Compound A115, 2-chloro-4-[(5S)-5-[3-chloro-5-(trifluoromethyl)phenyl]-5-(trifluoromethyl)-4H-isoxazol-3-yl]-N-[(4R)-2-(methylsulfamoyl)isoxazolidin-4-yl]benzamide]
≥ 80%: mortality at 200 ppm [1] | mortality at 200 ppm [2] | percent control (mortality, anti-feedant effect or growth inhibition) at 12.5 ppm [3] | mortality at 200 ppm [4] | percent effect (mortality or growth inhibition) at 200 ppm [5] | percent effect (mortality or growth inhibition) at 200 ppm [6] | percent effect (mortality or growth inhibition) at 200 ppm [7] | mortality at 200 ppm [8]

Cc1cc(C2=NO[C@@](c3cc(Cl)c(Cl)c(Cl)c3)(C(F)(F)F)C2)ccc1C(=O)N[C@H]1CON(S(C)(=O)=O)C1 [Compound A36]
≥ 80%: mortality at 200 ppm [1] | mortality at 200 ppm [2] | percent control (mortality, anti-feedant effect or growth inhibition) at 12.5 ppm [3] | mortality at 200 ppm [4] | percent effect (mortality or growth inhibition) at 200 ppm [5] | percent effect (mortality or growth inhibition) at 200 ppm [6] | percent effect (mortality or growth inhibition) at 200 ppm [7] | mortality at 200 ppm [8]

Cc1cc(C2=NOC(c3cc(Cl)cc(C(F)(F)F)c3)(C(F)(F)F)C2)ccc1C(=O)NC1CON(S(C)(=O)=O)C1 (stereo not drawn) [Compound A62]
≥ 80%: mortality at 200 ppm [1] | mortality at 200 ppm [2] | percent control (mortality, anti-feedant effect or growth inhibition) at 12.5 ppm [3] | mortality at 200 ppm [4] | percent effect (mortality or growth inhibition) at 200 ppm [5] | percent effect (mortality or growth inhibition) at 200 ppm [6] | percent effect (mortality or growth inhibition) at 200 ppm [7] | mortality at 200 ppm [8]
